Data: patent publication US9844575B2, “Pharmaceutical composition and functional food comprising natural extracts for preventing or treating diabetic complications or angiodema” (KOREA INSTITUTE OF ORIENTAL MEDICINE, priority 2013, dated 2017)
Structures can show the parent of a compound that is named as a salt.

Columns and labels:
[1] = tested on: advanced glycation endproducts (AGE); assay: Inhibitory effect against formation of advanced glycation endproducts (BSA + fructose/glucose, 7 days, fluorescence); type: biochemical
Description: Experiments were performed to examine the inhibitory effects of each of the compositions prepared in Example 1 and Example 2 against the formation of advanced glycation endproducts.
Bovine serum albumin (BSA), a protein source, was prepared by mixing into a phosphate buffer solution. As a sugar source, a mixed solution between 0.2 M fructose and 0.2 M glucose was used. Each of the compositions prepared in Example 1 and Example 2, and aminoguanidine (positive control) were respectively added into a mixed solution between BSA and a sugar, and cultured for 7 days. After culturing, the content of the resulting advanced glycation endproducts was analyzed. The amount of the advanced glycation endproducts was calculated based on the Equation 1 below using a Microplate reader (Excitation; 350 nm, Emission; 450 nm) (Table 1). Inhibitory effect of AGE (%)={100−(fluorescence intensity of a sample)−(fluorescence intensity of a blank sample)/(fluorescence intensity of a control)−(fluorescence intensity of a blank control)}×100 [Equation 1]

[2] = tested on: vascular endothelial growth factor (VEGF); assay: Immunohistochemical staining: formation of VEGF in retina of db/db mice; type: in vivo; conditions: oral once daily 12 weeks; COPH 25 and 50 mg/kg; MET 350 mg/kg; COPH 50 + MET 350 mg/kg
Excerpt: VEGF induces neovascularization and increases permeability of blood vessels. Additionally, VEGF also induces the formation of substrate-degradative proteins.

| Structure (SMILES) | IC50 ([1]; AGE formation, BSA + 0.2 M fructose/0.2 M glucose, 7 days) [µg/mL] | Inhibitory effect (%) ([1]; Conc. 55.5 μg/mL) | Inhibitory effect (%) ([1]; Conc. 74.8 μg/mL) | Inhibitory effect (%) ([1]; Conc. 92.5 μg/mL) | expression of VEGF within retinal tissue (FIG. 9) [2] |
| --- | --- | --- | --- | --- | --- |
| N=C(N)NN [Aminoguanidine HCl] | 76.47 ± 4.81 | 43.92 ± 0.37 | 50.86 ± 2.17 | 54.91 ± 0.75 | – |
| CN(C)C(=N)N=C(N)N [MET, metformin] | – | – | – | – | significantly inhibited the expression of VEGF |
